“And” between values parts separate entries of the source, which are not always exact repeats. Identical values can stand only once.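 Following 48 hours of exposure in 96-well plates, responses at five concentrations were used to interpolate endpoints linearly. Here, GI50 denotes the concentration required for 50% inhibition of growth. TGI: concentration producing complete growth inhibition.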
Key:
Experiment in all cases: NCI anticancer screen, dose series, 48 h
HT29 colon = system: HT29 colon
OVCAR-4 ovarian = system: OVCAR-4 ovarian
SNB-19 CNS = system: SNB-19 CNS
HOP-62 NSCLC = system: HOP-62 NSCLC
KM20L2 colon = system: KM20L2 colon
DMS 114 small cell lung = system: DMS 114 small cell lung
COLO 205 colon = system: COLO 205 colon
A549 NSCLC = system: A549 NSCLC
HS 578T breast = system: HS 578T breast
NCI/ADR-RES ovarian = system: NCI/ADR-RES ovarian

| Structure (SMILES) | TGI (HT29 colon) | TGI (OVCAR-4 ovarian) | TGI (SNB-19 CNS) | TGI (HOP-62 NSCLC) | TGI (KM20L2 colon) | TGI (DMS 114 small cell lung) | TGI (COLO 205 colon) | TGI (A549 NSCLC) | GI50 (HT29 colon) | GI50 (HS 578T breast) | TGI (HS 578T breast) | GI50 (OVCAR-4 ovarian) | GI50 (SNB-19 CNS) | GI50 (HOP-62 NSCLC) | GI50 (KM20L2 colon) | GI50 (DMS 114 small cell lung) | GI50 (COLO 205 colon) | GI50 (A549 NSCLC) | GI50 (NCI/ADR-RES ovarian) | TGI (NCI/ADR-RES ovarian) |
| --- | --- | --- | --- | --- | --- | --- | --- | --- | --- | --- | --- | --- | --- | --- | --- | --- | --- | --- | --- | --- |
| COc1ccc(NC(=O)CC(=O)N2N=C(N(CCC#N)c3ccccc3Cl)CC2c2ccccc2)cc1 (configuration not stated) | > 100 µM | > 100 µM | > 100 µM | > 100 µM | > 100 µM | > 100 µM | > 100 µM | > 100 µM | – | – | – | – | – | – | – | – | – | – | – | – |
| CCC[CH2][Sn]([CH2]CCC)([O]C(=O)c1cc(F)ccc1F)[O][Sn]([CH2]CCC)([CH2]CCC)[O]C(=O)c1cc(F)ccc1F | 2.21 µM | 1.73 µM | 1.76 µM | 3.27 µM | 2.11 µM | 0.25 µM | 1.2 µM | 3.68 µM | 0.899 µM | 0.237 µM | 0.994 µM | 0.513 µM | 0.667 µM | 1.84 µM | 0.779 µM | 0.0832 µM | 0.413 µM | 1.77 µM | 0.522 µM | 1.88 µM |
| C/C=C/C1=C(Cl)C(=O)[C@@H](Cl)[C@@]1(O)C(=O)OC | 15.4 µM | 5.59 µM | 19.9 µM | 2.42 µM | 15.9 µM | > 34.4 µM | 3.22 µM | 24.3 µM | – | – | – | – | – | – | – | – | – | – | – | 6.23 µM |
| Cc1oc2c(C)c3oc(=O)cc(C)c3cc2c1CNC(=O)[C@@H]1OCCOCCOCCOCCOCCOC1C(=O)O (some centres not stated) | > 100 µM | > 100 µM | > 100 µM | > 100 µM | > 100 µM | > 100 µM | > 100 µM | > 100 µM | – | – | – | – | – | – | – | – | – | – | – | – |
| CCCCCCCC(=O)NCC(O)CNC(=O)CCCCCCC | > 100 µM | > 100 µM | > 100 µM | > 100 µM | > 100 µM | > 100 µM | > 100 µM | > 100 µM | – | – | – | – | – | – | – | – | – | – | – | – |
| CC(=O)O[C@@]12CO[C@@H]1C[C@H](O)[C@@]1(C)C(=O)[C@H](O)C3=C(C)[C@@H](OC(=O)[C@H](O)[C@@H](NC(=O)OC(C)(C)C)c4ccccc4)C[C@@](O)([C@@H](OC(=O)c4ccccc4)[C@H]21)C3(C)C | – | 76.1 µM | – | 3.78 µM | 0.022 µM | 0.0525 µM and 0.0223 µM | 0.059 µM and 0.00717 µM | > 82.2 µM | 0.00746 µM and 0.00257 µM | – | – | – | 0.00175 µM | 0.0844 µM and 0.0428 µM | 0.00818 µM | 0.00368 µM and 0.00371 µM | 0.0023 µM and 0.000963 µM | 0.00454 µM | 0.68 µM | 9.76 µM |
| CCOC(=O)N1C2C=C(C)C(ON2C(=O)c2ccccc2)C2C(C)C(=O)N21 (configuration not stated) | > 100 µM | > 100 µM | > 100 µM | > 100 µM | > 100 µM | > 100 µM | > 100 µM | > 100 µM | – | – | – | – | – | – | – | – | – | – | – | – |
| Cc1noc2cccc(OCc3ccccc3)c12 | > 100 µM | > 100 µM | > 100 µM | > 100 µM | > 100 µM | > 100 µM | > 100 µM | > 100 µM | – | – | – | – | – | – | – | – | – | – | – | – |
| CCN(CC)c1ccc(/C=C2/C[N+](C)(C)C/C(=C/c3ccc(N(CC)CC)cc3)C2=O)cc1 | 5.2 µM | 13.8 µM | 19.4 µM | 40.7 µM | 12.9 µM | 3.38 µM | 2.69 µM | > 100 µM | – | – | 11.2 µM | – | – | – | – | – | – | – | – | > 100 µM |
| NC(=O)C#CC#CC#CCO | 4.04 µM | 3.53 µM | 29.6 µM | 23.1 µM | 27.3 µM | 3.6 µM | 2.65 µM | 16.5 µM | – | – | – | – | – | – | – | – | – | – | – | – |
